The results in this text go back to patent US20120329770A1, “CEPHALOSPORIN DERIVATIVES USEFUL AS BETA-LACTAMASE INHIBITORS AND COMPOSITIONS AND METHODS OF USE THEREOF” (priority 2010, published 2012).

In experiment [1] the test system is Chryseobacterium meningosepticum IS 5824. Kind of experiment: Antimicrobial MIC / checkerboard assay for synergy with meropenem. In kind it is cell-based. The conditions noted are these: for FIC: meropenem + compound, checkerboard. The procedure:
(§1) Assays were conducted as described by Weigand et al. (Weigand, I.; Hilpert, K.; Hancock, R. E. Nat. Protocols 2008, 3, 163-175).
(§2) To determine the lowest concentration of an antimicrobial agent that inhibits visible growth of a microorganism, 50 μL of compound solution and 50 μL of buffer solution were added to each well at the desired concentration(s) (i.e. 4×the final concentration) as well as a zero control. Stock solutions of 10 mg/mL, were prepared in DMSO, followed by two-fold serial dilutions in Müeller-Hinton media and 100 μL of bacteria (ca. 5×10^5 CFU/mL) was added to each well. Plate counts were performed on the control wells to determine bacterial innoculum level. The innoculum was prepared by taking an overnight culture in Müeller-Hinton media and diluting to McFarland's 0.5 standard, and diluting a further 1:100 prior to addition to the plate. Lanes with no bacteria added served as sterility controls and lanes with no compound served as growth controls. Organisms were allowed to grow overnight at 37° C. in a humid environment and the plates were monitored at 625 nm for growth. MIC was determined to be the last well with no growth.
(§3) In the checkerboard assay one compound is serially diluted along the ordinate, and the second compound is serially diluted along the abscissa. […] A 50 μL aliquot of the compound was added to each well at the desired concentration(s) (i.e. 4×the final concentration) as well as a zero control. Stock solutions of 10 mg/mL of compound were prepared in DMSO, followed by two-fold serial dilutions in Müeller-Hinton media. Finally, 100 μL of bacteria (ca. 5×10^5 CFU/mL) was added to each well. Plate counts were performed on the control wells. Innoculum was prepared by taking an overnight culture in Müeller-Hinton media and diluting to McFarland's 0.5 standard, and diluting a further 1:100 prior to addition to the plate. Lanes with no bacteria added served as sterility controls and lanes with no meropenem or compound served as growth controls. The final volume in each well was 200 μL. The plates were allowed to grow overnight at 37° C. in a humid environment and were monitored at 625 nm for growth. […] Sterility controls and growth controls were included on each plate. The fractional inhibitory concentration (FIC) was determined as follows:
(§4) Results were interpreted in the following way: Synergistic if FIC≦0.5; Additive if […]; Indifferent if […]; Antagonistic if FIC≧2.0.

In experiment [2] the test system is Pseudomonas aeruginosa IS 6225. The description is as above. The conditions noted are these: P. aeruginosa IS 6225, meropenem + compound. In kind it is cell-based. The protocol:
as §1, §2, §3, §4

The test system of experiment [3] is Stenotrophomonas maltophilia IS 6069. The experiment is described as above. It counts as cell-based. The conditions noted are these: S. maltophilia IS 6069, meropenem + compound. The protocol: as §1, §2, §3, §4
In experiment [4] the test system is Stenotrophomonas maltophilia IS 6081. Described as above. The conditions noted are these: S. maltophilia IS 6081, meropenem + compound. It counts as cell-based. The procedure: as §1, §2, §3, §4
Experiment [5] relates to Pseudomonas aeruginosa IS 5563. The description is as above. It counts as cell-based. The conditions noted are these: for FIC: P. aeruginosa IS 5563, meropenem + compound, checkerboard. The protocol:
as §1, §2
as §3, with “Lanes with no bacteria added served as sterility controls and lanes with no meropenem or compound served as growth controls.” left out
as §4

Experiment [6] concerns Stenotrophomonas maltophilia IS 5568. The description is as above. It counts as cell-based. To be noted: for FIC: S. maltophilia IS 5568, meropenem + compound, checkerboard. The protocol: as §1, §2
as §3, with “Lanes with no bacteria added served as sterility controls and lanes with no meropenem or compound served as growth controls.” left out
as §4

A further experiment addresses T1, IMP-1 (Serratia marcescens, UniProt P52699).
T1 construct: made in house; host or cells: Escherichia coli BL21(DE3) carrying pCIP4
Nature of the experiment: Inhibition of IMP-1-catalyzed hydrolysis of meropenem in vitro (310 nm). In kind it is biochemical. The conditions noted are these: for protection of meropenem from IMP-1-catalyzed hydrolysis in vitro: IMP-1 12 nM, meropenem 200 μM, test substance 100 μM, 310 nm.

The next experiment deals with β-lactamases. Nature of the experiment: β-Lactamase inhibition, result in words. It counts as biochemical. An excerpt: In preferred embodiments, the compounds incorporate a good leaving group at the C3′ carbon that can be readily expelled as an anion. In some embodiments, the leaving group is a C3′-benzoylthio group, which may be substituted or unsubstituted, according to the definitions provided above for substituted or unsubstituted.
This effect correlates with the expected better leaving group ability of the benzoylthio group in the hydrolysis product versus the benzoate group in the comparative compound.

The target in experiment [7] is T2, IMP-1 metallo-β-lactamase (Serratia marcescens, UniProt P52699).
T2 construct: made in house; host or cells: Escherichia coli BL21(DE3) carrying pCIP4
T2 sequence (P52699 19-246, looked up): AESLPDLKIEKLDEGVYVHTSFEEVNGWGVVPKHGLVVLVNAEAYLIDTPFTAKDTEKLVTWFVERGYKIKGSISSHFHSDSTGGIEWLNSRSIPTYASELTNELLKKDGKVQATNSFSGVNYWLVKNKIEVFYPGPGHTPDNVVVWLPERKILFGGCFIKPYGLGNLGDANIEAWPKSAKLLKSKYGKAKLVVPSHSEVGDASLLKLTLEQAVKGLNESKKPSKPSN
Nature of the experiment: Inhibition of β-lactamases, nitrocefin hydrolysis. It counts as biochemical. From the text:
IMP-1 metallo-β-lactamase was expressed in Esherichia coli BL21(DE3) carrying pCIP4 and purified as reported by Laraki et al. (Antimicrob. Agents Chemother. 1999, 43, 902-906). The homogeneity of the protein was confirmed by SDS-PAGE according to the method of Laemmli (Nature 1970, 227, 680-685). The molecular weight of purified IMP-1, Mr=25,112±0.5 Da, as determined by ESI-MS, was in agreement with that deduced from its amino acid sequence (Laraki et al. Antimicrob. Agents Chemother. 1999, 43, 890-901).
Assay conditions for IC50 determinations involved enzyme concentrations ranging between 2 and 6 nM. The concentration used for the nitrocefin substrate was 100 μM. Assays with OXA-10 and OXA-45 were conducted at pH 7.0 with 100 mM sodium phosphate buffer containing 25 mM sodium bicarbonate. Assays with KPC-2 and GC1 were performed at pH 7.0 in 50 mM HEPES buffer and assays with IMP-1 and VIM-2 were performed in the same buffer with the addition of 500 mM NaCl and 1 μM ZnSO4. BSA was used with all enzymes (except OXA-10 and KPC-2) at concentrations of 0.5-1.0 μg/mL.
Inhibitors were pre-incubated for 10 minutes at room temperature with enzyme assay solutions prior to the addition of the nitrocefin. These compounds were dissolved in DMSO and prepared at various concentrations such that the final concentration of DMSO was 1% during the pre-incubation. The reaction was initiated by the addition of the pre-incubated enzyme-cyclobutanone solution (90 μL) to a solution of nitrocefin in buffer (10 μL). Enzymatic activity was determined using the initial rate of increase in absorbance at 482 nm

Experiment [8] has as its system Pseudomonas aeruginosa C-10. Kind of experiment: Antimicrobial MIC / checkerboard assay for synergy with meropenem. It counts as cell-based. The conditions noted are these: P. aeruginosa C-10; for FIC: meropenem + compound, checkerboard. The protocol: as §1, §2, §3, §4

As a reminder, the MIC is the smallest concentration in the dilution series that meets the test's criterion for growth inhibition.

T1 sequence (P52699 19-246 limits assumed): as the sequence (P52699 19-246, looked up) above

`O=C(Cc1cccs1)N[C@@H]1C(=O)N2C(C(=O)O)=C(CSC(=O)c3ccccc3)CS[C@H]12` [CMPD B]: the FIC in experiment [1] (C. meningosepticum IS 5824) is reported as 0.5078; in [2] it was 0.375; in experiment [3], 0.1875; in [4] it was 0.1328; in [5] it was 0.1328; in experiment [6], 0.1289.

For `CC(=O)SCC1=C(C(=O)O)N2C(=O)[C@@H](NC(=O)Cc3cccs3)[C@H]2SC1` [Example 12, (6R,7R)-3-(acetylthiomethyl)-8-oxo-7-(2-(thiophen-2-yl)acetamido)-5-thia-1-azabicyclo[4.2.0]oct-2-ene-2-carboxylic acid], the “performance as inhibitor” value on IMP-1 is “poor performance”.

In the case of `O=C(Cc1cccs1)NC1C(=O)N2C(C(=O)O)=C(COC(=O)c3ccccc3)CSC12` (centres unmarked) [oxygen analogue, reference compound], the “β-lactamase inhibition” value with β-lactamases is recorded as “substrate but not an inhibitor”.

With `OC(=S)c1ccccc1` [benzoylthio, reference compound], in [7], the “inhibition of the MBL IMP-1” value is “poor inhibitor”.

For `COc1cccc(CC(=O)N[C@@H]2C(=O)N3C(C(=O)O)=C(CSC(=O)c4ccccc4)CS[C@H]23)c1` [CMPD F], the FIC in [1] (C. meningosepticum IS 5824) was determined as 0.2578; in experiment [8], 1.5; in [2] it was 3; in [3] it was 0.1875; in [4], 0.281; in experiment [5] it was 0.2519. Further, the FIC in experiment [6] is 0.126.

As for `C[C@@H](O)[C@H]1C(=O)N2C(C(=O)O)=C(S[C@@H]3CN[C@H](C(=O)N(C)C)C3)[C@H](C)[C@H]12` [Mero, meropenem, reference compound], the “MIC Mero Alone” value in experiment [1] (C. meningosepticum IS 5824) is 32 µg/mL. Besides, the MIC in [1] (Elizabethkingia meningoseptica, IS5824, read-out: MIC Mero Alone, C. meningosepticum IS 5824) is 64 µg/mL; in [8] (Pseudomonas aeruginosa, C10, read-out: MIC Mero Alone), 16 µg/mL; in experiment [5] (Pseudomonas aeruginosa, IS5563, read-out: MIC Mero Alone, P. aeruginosa IS 5563), 64 µg/mL; in [6] (Stenotrophomonas maltophilia, IS5568, read-out: MIC Mero Alone, S. maltophilia IS 5568), 64 µg/mL.

With `O=C(Cc1ccc(F)cc1)N[C@@H]1C(=O)N2C(C(=O)O)=C(CSC(=O)c3ccccc3)CS[C@H]12` [CMPD E], the FIC in [1] (C. meningosepticum IS 5824) stood at 0.2578; in experiment [8], 0.625; in [2], 2; in experiment [3] it was 0.1875; in experiment [4], 1.03; in experiment [5] it was 0.1269. In experiment [6], the FIC was 0.126.

Take `CO/N=C(\C(=O)N[C@@H]1C(=O)N2C(C(=O)O)=C(CSC(=O)c3ccco3)CS[C@H]12)c1csc(N)n1` [ceftiofur]: on IMP-1, the “performance as inhibitor” value is reported as “poor performance” and the “protection of meropenem from IMP-1-catalyzed hydrolysis in vitro” value was “relatively poor protection”.

On to `O=C(Cc1ccc(F)cc1)N[C@@H]1C(=O)N2C(C(=O)O)=C(CSC(=O)c3ccccc3)CS[C@H]12` [Example 16, (6R,7R)-3-(benzoylthiomethyl)-7-(2-(4-fluorophenyl)acetamido)-8-oxo-5-thia-1-azabicyclo[4.2.0]oct-2-ene-2-carboxylic acid], for which the “protection of meropenem from IMP-1-catalyzed hydrolysis in vitro” value at IMP-1 was “good protection”.

With `O=C(Cc1ccc(Cl)cc1)N[C@@H]1C(=O)N2C(C(=O)O)=C(CSC(=O)c3ccccc3)CS[C@H]12` [CMPD D], the FIC in experiment [1] (C. meningosepticum IS 5824) is 0.2578; in experiment [8], 1; in experiment [2] it was 2; in experiment [3], 0.1875; in [4], 1.03; in [5], 0.2519. Also, in [6], the FIC came out at 0.126.
